Patent US8217043B2, “Compounds and methods for their use” (Fibrogen, Inc., priority 2008, dated 2012)

Target: T1, HIF-PH2 (EGLN1) (Homo sapiens, UniProt Q9GZT9)
T1 construct: made in house; host or cells: insect Hi5 cells
Test: HIF-PH assay (14CO2 capture, peptide-dependent turnover)
Type: biochemical
Details: for inhibition at 67 µM: Concentration 67 μM; for inhibition at 125 µM: Concentration 125 μM; for inhibition at 200 µM: Concentration 200 μM
Description: Ketoglutaric acid α-[1-^14C]-sodium salt, alpha-ketoglutaric acid sodium salt, and HPLC purified peptide may be obtained from commercial sources, e.g., Perkin-Elmer (Wellesley Mass.), Sigma-Aldrich, and SynPep Corp. (Dublin Calif.), respectively. Peptides for use in the assay may be fragments of HIFα as described above or as disclosed in International Publication WO 2005/118836, incorporated by reference herein. HIF-PH, e.g., HIF-PH2 (EGLN1), can be expressed in, e.g., insect Hi5 cells, and partially purified, e.g., through a SP ion exchange chromatography column. Enzyme activity is determined by capturing ^14CO2 using an assay described by Kivirikko and Myllyla (1982, Methods Enzymol. 82:245-304). Assay reactions contain 50 mM HEPES (pH 7.4), 100 μM α-ketoglutaric acid sodium salt, 0.30 μCi/mL ketoglutaric acid α-[1-^14C]-sodium salt, 40 μM FeSO4, 1 mM ascorbate, 1541.8 units/mL Catalase, with or without 50 μM peptide substrate and various concentrations of compound of the invention. Reactions are initiated by addition of HIF-PH enzyme.
The peptide-dependent percent turnover is calculated by subtracting percent turnover in the absence of peptide from percent turnover in the presence of substrate peptide. Percent inhibition and IC50 are calculated using peptide-dependent percent turnover at given inhibitor concentrations. Calculation of IC50 values for each inhibitor is conducted using GraFit software (Erithacus Software Ltd., Surrey UK).
Representative compounds of the invention were analyzed using the HIF-PH assay described above. Table 1 presents enzyme inhibition data for exemplary compounds against HIF-PH2, a representative HIF prolyl hydroxylase. By inhibiting HIF prolyl hydroxylase, compounds of the invention stabilize HIFα, which then combines with HIFβ to form an active transcription factor that increases expression of various genes involved in numerous beneficial cellular processes.

T1 sequence (Q9GZT9 whole entry, species assumed): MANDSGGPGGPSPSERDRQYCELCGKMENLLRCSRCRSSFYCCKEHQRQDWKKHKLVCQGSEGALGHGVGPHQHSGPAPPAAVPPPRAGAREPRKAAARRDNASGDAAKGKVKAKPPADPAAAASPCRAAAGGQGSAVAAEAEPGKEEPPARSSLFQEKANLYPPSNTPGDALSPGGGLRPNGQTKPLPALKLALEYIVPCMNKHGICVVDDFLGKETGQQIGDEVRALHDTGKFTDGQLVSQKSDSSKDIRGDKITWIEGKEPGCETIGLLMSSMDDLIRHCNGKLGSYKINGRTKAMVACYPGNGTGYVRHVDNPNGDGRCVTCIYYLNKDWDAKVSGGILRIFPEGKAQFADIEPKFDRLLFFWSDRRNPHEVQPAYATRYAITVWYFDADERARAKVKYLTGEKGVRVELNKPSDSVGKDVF

Compound | inhibition at 67 µM | inhibition at 125 µM | further results
O=C(O)CNC(=O)c1c(O)c2cc(Cl)cn2n(Cc2ccc(F)cc2)c1=O [Example 26, {[6-Chloro-4-hydroxy-2-oxo-1-(4-fluoro-benzyl)-1,2-dihydro-pyrrolo[1,2-b]pyridazine-3-carbonyl]-amino}-acetic acid] | 98% |  | 
O=C(O)CNC(=O)c1c(O)c2cccn2n(Cc2ccc(C(F)(F)F)cc2)c1=O [Example 10, {[1-(4-Trifluoromethyl-benzyl)-4-hydroxy-2-oxo-1,2-dihydro-pyrrolo[1,2-b]pyridazine-3-carbonyl]-amino}-acetic acid] |  |  | inhibition at 200 µM: 100%
O=C(O)CNC(=O)c1c(O)c2cccn2n(Cc2ccc(Cl)cc2)c1=O [Example 11, {[1-(4-Chloro-benzyl)-4-hydroxy-2-oxo-1,2-dihydro-pyrrolo[1,2-b]pyridazine-3-carbonyl]-amino}-acetic acid] |  |  | inhibition at 200 µM: 100%
O=C(O)CNC(=O)c1c(O)c2cc(Cl)cn2n(Cc2cccnc2)c1=O [Example 38, [(6-Chloro-4-hydroxy-2-oxo-1-pyridin-3-ylmethyl-1,2-dihydro-pyrrolo[1,2-b]pyridazine-3-carbonyl)-amino]-acetic acid] | 99% |  | 
O=C(O)CNC(=O)c1c(O)c2cccn2n(Cc2cccc(Cl)c2)c1=O [Example 8, {[1-(3-Chloro-benzyl)-4-hydroxy-2-oxo-1,2-dihydro-pyrrolo[1,2-b]pyridazine-3-carbonyl]-amino}-acetic acid] |  |  | inhibition at 200 µM: 100%
O=C(O)CNC(=O)c1c(O)c2c(Cl)c(Cl)c(Cl)n2n(Cc2ccccc2)c1=O [Example 2, [(1-Benzyl-5,6,7-trichloro-4-hydroxy-2-oxo-1,2-dihydro-pyrrolo[1,2-b]pyridazine-3-carbonyl)-amino]-acetic acid] |  |  | inhibition at 22 µM (Concentration 22 μM): 99%
C[C@H](NC(=O)c1c(O)c2cc3ccc(C(F)(F)F)cc3n2n(Cc2ccc(F)cc2)c1=O)C(=O)O [Example 44, 2-(S)-{[4-(4-Fluoro-benzyl)-1-hydroxy-3-oxo-6-trifluoromethyl-3,4-dihydro-4,4a-diaza-fluorene-2-carbonyl]-amino}-propionic acid] | 89% |  | 
CC[C@H](NC(=O)c1c(O)c2cc(Cl)cn2n(Cc2ccc(OC)cc2)c1=O)C(=O)O [Example 33, 2-(S)-{[6-Chloro-1-(4-methoxy-benzyl)-4-hydroxy-2-oxo-1,2-dihydro-pyrrolo[1,2-b]pyridazine-3-carbonyl]-amino}-butyric acid] | 88% |  | 
O=C(O)CNC(=O)c1c(O)c2cccn2n(Cc2ccccc2C(F)(F)F)c1=O [Example 16, {[1-(2-Trifluoromethyl-benzyl)-4-hydroxy-2-oxo-1,2-dihydro-pyrrolo[1,2-b]pyridazine-3-carbonyl]-amino}-acetic acid] |  | 98% | 
C[C@H](NC(=O)c1c(O)c2cc(Cl)cn2n(Cc2ccc(-c3ccccc3)cc2)c1=O)C(=O)O [Example 35, 2-(S)-[(1-Biphenyl-4-ylmethyl-6-chloro-4-hydroxy-2-oxo-1,2-dihydro-pyrrolo[1,2-b]pyridazine-3-carbonyl)-amino]-propionic acid] | 100% |  | 

Continued, in another order:

inhibition at 67 µM | inhibition at 125 µM | Compound | further results
94% |  | CC[C@H](NC(=O)c1c(O)c2cc(Cl)cn2n(Cc2ccc(Cl)cc2)c1=O)C(=O)O [Example 30, 2-(S)-{[6-Chloro-1-(4-chloro-benzyl)-4-hydroxy-2-oxo-1,2-dihydro-pyrrolo[1,2-b]pyridazine-3-carbonyl]-amino}-butyric acid] | 
 | 98% | O=C(O)CNC(=O)c1c(O)c2cccn2n(Cc2cccc(F)c2)c1=O [Example 14, {[1-(3-Fluoro-benzyl)-4-hydroxy-2-oxo-1,2-dihydro-pyrrolo[1,2-b]pyridazine-3-carbonyl]-amino}-acetic acid] | 
 | 96% | O=C(O)CNC(=O)c1c(O)c2cccn2n(Cc2ccccc2F)c1=O [Example 5, {[1-(2-Fluoro-benzyl)-4-hydroxy-2-oxo-1,2-dihydro-pyrrolo[1,2-b]pyridazine-3-carbonyl]-amino}-acetic acid] | 
 | 97% | O=C(O)CNC(=O)c1c(O)c2cccn2n(Cc2cccc(C(F)(F)F)c2)c1=O [Example 13, {[1-(3-Trifluoromethyl-benzyl)-4-hydroxy-2-oxo-1,2-dihydro-pyrrolo[1,2-b]pyridazine-3-carbonyl]-amino}-acetic acid] | 
 | 84% | O=C(O)CNC(=O)c1c(O)c2cccn2[nH]c1=O [Example 4, [(4-Hydroxy-2-oxo-1,2-dihydro-pyrrolo[1,2-b]pyridazine-3-carbonyl)-amino]-acetic acid] | 
